Where two headings read alike, the source gives them in different places.
Tests used:
Format in all cases: cell-based
[1] = system: Aspergillus fumigatus TIMM1776
Protocol: (§1) The antifungal activities of the compounds synthesized in Examples 1 and 3 to 7 were measured by a liquid medium dilution method. Candida albicans TIMM0136, Cryptococcus neoformans TIMM0354 or Aspergillus fumigatus TIMM1776 was inoculated into a medium containing one of the compounds diluted serially, and cultured at 30° C. for two days. […] For the measurements, a medium containing 0.67% Yeast Nitrogen Base (Difco) and 1.0% glucose (YNBG medium) was used for the cultures of Candida albicans and Cryptococcus neoformans, and a medium containing 0.5% Brain Heart Infusion Bouillon (Nissui) (BHI medium) was used for the culture of Aspergillus fumigatus.

[2] = system: Candida albicans TIMM0136
Protocol: as §1

[3] = system: Cryptococcus neoformans TIMM0354
Protocol: as §1

With `CCCCCCCCCCCCCC1CC(=O)N[C@@H](C)C(=O)N[C@@H](CCCN)C(=O)NCCC(=O)N[C@@H](CO)C(=O)N[C@@H](CO)C(=O)N[C@H](CC(N)=O)C(=O)N[C@H]([C@@H](C)O)C(=O)NCC(=O)O1` (mixture of isomers) [Compound 1, cyclo(-L-Ala-L-Orn-β-Ala-L-Ser-L-Ser-D-Asn-D-allo-Thr-Gly-(±) -Hhd-)] the “MIC (μg/ml) A.f.” value ([1]; Aspergillus fumigatus TIMM1776, BHI medium, 30° C., two days, growth almost completely inhibited) was 1.56 µg/mL.

For `CCCCCCCCCCCCCC1CC(=O)N[C@@H](C)C(=O)N[C@@H](CCCN)C(=O)N[C@@H](CC(N)=O)C(=O)N[C@@H](CO)C(=O)N[C@@H](CO)C(=O)N[C@H](CC(N)=O)C(=O)N[C@H]([C@@H](C)O)C(=O)NCC(=O)O1` (mixture of isomers) [Compound 3, cyclo(-L-Ala-L-Orn-L-Asn-L-Ser-L-Ser-D-Asn-D-allo-Thr-Gly-(±)-Hhd-)], the “MIC (μg/ml) A.f.” value ([1]; TIMM1776) was 1.56 µg/mL, the “MIC (μg/ml) C.a.” value [2] was 6.25 µg/mL and the “MIC (μg/ml) C.n.” value [3] was 3.12 µg/mL.

For `CCCCCCCCCCCCCC1CC(=O)N[C@@H](C)C(=O)N[C@@H](CCCN)C(=O)N[C@@H](CC(=O)O)C(=O)N[C@@H](CO)C(=O)N[C@@H](CO)C(=O)N[C@H](CC(N)=O)C(=O)N[C@H]([C@@H](C)O)C(=O)NCC(=O)O1` (mixture of isomers) [Compound 4, cyclo(-L-Ala-L-Orn-L-Asp-L-Ser-L-Ser-D-Asn-D-allo-Thr-Gly-(±)-Hhd-)], the “MIC (μg/ml) C.a.” value [2] was 6.25 µg/mL and the “MIC (μg/ml) C.n.” value [3] was 6.25 µg/mL.

With `CCCCCCCCCCCCCC1CC(=O)N[C@@H](C)C(=O)N[C@@H](CCCN)C(=O)N[C@@H](CCC(=O)O)C(=O)N[C@@H](CO)C(=O)N[C@@H](CO)C(=O)N[C@H](CC(N)=O)C(=O)N[C@H]([C@@H](C)O)C(=O)NCC(=O)O1` (mixture of isomers) [Compound 5, cyclo(-L-Ala-L-Orn-L-Glu-L-Ser-L-Ser-D-Asn-D-allo-Thr-Gly-(±)-Hhd-)] the “MIC (μg/ml) A.f.” value ([1]; TIMM1776) was 0.39 µg/mL, the “MIC (μg/ml) C.a.” value [2] was 3.12 µg/mL and the “MIC (μg/ml) C.n.” value [3] was 6.25 µg/mL.

`CCCCCCCCCCCCCC1CC(=O)N[C@@H](C)C(=O)N[C@@H](CCCN)C(=O)NCC(=O)N[C@@H](CO)C(=O)N[C@@H](CO)C(=O)N[C@H](CC(N)=O)C(=O)N[C@H]([C@@H](C)O)C(=O)NCC(=O)O1` (mixture of isomers) [Compound 6, cyclo(-L-Ala-L-Orn-Gly-L-Ser-L-Ser-D-Asn-D-allo-Thr-Gly-(±)-Hhd-)] was tested, and the “MIC (μg/ml) C.a.” value [2] was 12.5 µg/mL and the “MIC (μg/ml) C.n.” value [3] was 3.12 µg/mL.

With `CCCCCCCCCCCCCC1CC(=O)N[C@@H](C)C(=O)N[C@@H](CCCN)C(=O)N[C@@H](CO)C(=O)N[C@@H](CO)C(=O)N[C@@H](CO)C(=O)N[C@H](CC(N)=O)C(=O)N[C@H]([C@@H](C)O)C(=O)NCC(=O)O1` (mixture of isomers) [Compound 7, cyclo(-L-Ala-L-Orn-L-Ser-L-Ser-L-Ser-D-Asn-D-allo-Thr-Gly-(±)-Hhd-)] the “MIC (μg/ml) A.f.” value ([1]; TIMM1776) was 0.78 µg/mL, the “MIC (μg/ml) C.a.” value [2] was 6.25 µg/mL and the “MIC (μg/ml) C.n.” value [3] was 3.12 µg/mL.

In the case of `CCCCCCCCCCCCCC1CC(=O)N[C@@H](C)C(=O)N[C@@H](CCCN)C(=O)NCCC(=O)N[C@@H](CO)C(=O)N[C@@H](CO)C(=O)N[C@H](CC(N)=O)C(=O)N[C@H]([C@H](C)O)C(=O)NCC(=O)O1` (stereo partly drawn) [AA^7:D-Thr-substituted analog], the “MIC (μg/ml) A.f.” value ([1]; TIMM1776) is reported as > 200 µg/mL, the “MIC (μg/ml) C.a.” value [2] is reported as > 200 µg/mL and the “MIC (μg/ml) C.n.” value [3] is reported as > 200 µg/mL.

In the case of `CCCCCCCCCCCCCC1CC(=O)N[C@@H](C)C(=O)N[C@@H](CCCN)C(=O)NCCC(=O)N[C@@H](CO)C(=O)N[C@@H](CO)C(=O)N[C@H](CC(N)=O)C(=O)N[C@@H]([C@@H](C)O)C(=O)NCC(=O)O1` (stereo partly drawn) [AA^7:L-Thr-substituted analog], the “MIC (μg/ml) A.f.” value ([1]; TIMM1776) is reported as > 200 µg/mL, the “MIC (μg/ml) C.a.” value [2] is reported as > 200 µg/mL and the “MIC (μg/ml) C.n.” value [3] is reported as > 200 µg/mL.
